Experimental data reported in patent publication US12239643B2, “Therapeutic agent for inflammatory diseases, autoimmune diseases, fibrotic diseases, and cancer diseases” (MEIJI SEIKA PHARMA CO., LTD., priority 2018, dated 2025).
Like-named read-outs stand apart in the source and are kept apart here.

Key:
PDE4 = assay: Evaluation of PDE4 inhibitory activity, scintillation proximity assay; assay type: biochemical; details: for PDE4 inhibitory activity: summary in words of Tables 57 to 69
How it was run: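 SPA with [2,8-3H]-cAMP and diluted PDE4 enzyme preparation in 50 mM Tris-HCl pH 7.4, 8.3 mM MgCl2, 1.7 mM EGTA, 3 mg/mL BSA, 120 min at room temperature. Product captured on ZnSO4-containing YSi-SPA beads, scintillation counted; IC50 from inhibition curves vs DMSO control and no-enzyme blank.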

[1] = Hepatic metabolic stability (rat liver microsome method); assay type: in vitro ADME; details: rat liver microsomes 0.5 mg/mL, test substance 1 μM, NADPH 1 mM, 37° C., 30 minutes
How it was run: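 Rat liver microsomes (0.5 mg/mL final) with test compound (1 μM final) in 100 mM potassium phosphate pH 7.4, 37° C; reaction started with NADPH (1 mM final) after 5 min preincubation. Acetonitrile stop at 0 and 30 min, LC-MS quantitation; % remaining = 30 min/0 min ×100, graded A ≥75%, B 60–<75%, C 45–<60%, D <45%.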

[2] = test system: oxazolone-induced auricle edema, BALB/c mice; assay: Mouse delayed type hypersensitivity (DTH) model (topical); assay type: in vivo; details: 20 μL applied to auricle, 24 hours after application
Protocol: Evaluation was carried out using female BALB/c mice (7 to 8 weeks of age). First, the hair of the abdomen of the mice was treated with a hair clipper, and then 150 μL of a 3% oxazolone acetone/ethanol solution was applied to the abdomen as a hapten. Five days later, 20 μL/ear of a 1% oxazolone.acetone/ethanol solution was applied to the outer surface of the auricle of both ears of the mouse to induce inflammation. Thirty minutes after the start of inflammation induction, 20 μL of the test compound dissolved in an acetone/ethanol solution was applied to the auricle. A 1% oxazolone was not applied to the blank. The control was one in which 1% oxazolone was applied and only an acetone/ethanol solution was applied without using the test compound. The auricle thickness 24 hours after application of the test compound was measured with a dial thickness gauge, and the value obtained by subtracting the blank value was used to calculate the edema suppression rate by the following formula. Edema Suppression Rate (%)={1−(Value at Addition of Each Test Compound−Blank Value)/(Control Value−Blank Value)}×100 The measurement results obtained by measuring the edema suppression rate at the time of topical administration of each test compound by the above method were evaluated in accordance with the following evaluated basis; A: 60% or more, B: 40% or more and less than 60%, and C: less than 40%.

TGF-β = TGF-β inhibitory activity using THP1 cells differentiated into macrophages; assay type: cell-based; details: Homo sapiens, read-out: TFG-β Inhibitory Activity (Test Example 6)
Protocol: The TGF-β inhibitory activity was measured using THP1 cells as follows. First, THP1 cells were seeded on a 24-well culture plate at […], and culture was carried out overnight at 37° C. and 5% CO2 in RPMI-1640 medium (containing 10% fetal bovine serum, penicillin, and streptomycin) supplemented with 100 nM phorbol myristate acetate. After that, the cells were differentiated into macrophages by changing to RPMI-1640 medium without phorbol myristate acetate, followed by further culture at 37° C. under 5% CO2 overnight. Next, the THP1 culture plate was washed once with PBS(−) 1 mL/well, and then the test compound and lipopolysaccharide (final concentration 1 μg/mL) were added, followed by culture at 37° C. under 5% CO2 for about 7 hours. After culturing, the entire amount of the medium was collected, and the amount of TGF-β in the centrifuged supernatant was quantified by the sandwich ELISA method. The non-addition of lipopolysaccharide was used as a blank, and the control was obtained by adding only dimethyl sulfoxide instead of the test compound, and the inhibition rate of the test compound against the control was calculated by the following formula. Inhibition Rate (%)={1−(Value at Addition of Each Test Compound−Blank Value)/(Control Value−Blank Value)}×100
In addition, the TGF-β inhibitory activity (concentration for the inhibition rate of 50%) of the test compound was calculated from the inhibition curves based on the inhibition rate for various concentrations of the test compound.
The measurement results obtained by measuring the TFG-β inhibitory activity (50% inhibitory concentration) of the test compounds by the above method were evaluated in accordance with the following evaluated basis; A: less than 1 μM, and B: 1 μM or more.

[3] = finer grading of compounds rated A in Evaluation 1, read-out: PDE4 Inhibitory Activity (Evaluation 2)
[4] = scintillation proximity assay, read-out: PDE4 Inhibitory Activity (Evaluation 1; concentration for the inhibition rate of 50%)
[5] = THP-1, THP1 cells differentiated into macrophages, lipopolysaccharide 1 μg/mL, about 7 hours

SMILES | IC50 (PDE4; [3]) | IC50 (PDE4; [4]) | PDE4 inhibitory activity (PDE4) | Residual ratio (% remaining for 30-minute reaction) [1] | Mouse DTH Model (Test Example 11), Topical: edema suppression rate [2] | IC50 (PDE4; scintillation proximity assay, class symbols of Evaluation 1, read-out: PDE4 Inhibitory Activity (concentration for the inhibition rate of 50%, IC50), Evaluation 1) | IC50 (TGF-β; [5]) | IC50 (TGF-β; THP-1, 7 h)
CC(O)C(F)(F)Oc1ccc(-c2nccs2)c2oc(N3CC4CC(C3)N4)nc12 (single isomer, unassigned) [Example 252, 1-((2-(3,6-Diazabicyclo[3.1.1]heptan-3-yl)-7-(thiazol-2-yl)benzo[d]oxazol-4-yl)oxy)-1,1-difluoropropan-2-ol] | ≤ 1 nM | < 100 nM | particularly excellent | A (A: a % remaining rate of 75% or more) | B (B: 40% or more and less than 60%) | – | – | –
FC(F)(F)Oc1ccc(-c2nccs2)c2oc(N3CC4CC(C3)N4)nc12 [Example 29, 2-(3,6-Diazabicyclo[3.1.1]heptan-3-yl)-7-(thiazol-2-yl)-4-(trifluoromethoxy)benzo[d]oxazole] | 1 to 11 nM | – | particularly excellent | B (B: 60% or more and less than 75%) | A (A: 60% or more) | < 100 nM | < 1000 nM | –
CC(C)(O)C(F)(F)Oc1ccc(-c2nccs2)c2oc(N3CC4CC(C3)N4)nc12 [Example 248, 1-((2-(3,6-Diazabicyclo[3.1.1]heptan-3-yl)-7-(thiazol-2-yl)benzo[d]oxazol-4-yl)oxy)-1,1-difluoro-2-methylpropan-2-ol] | ≤ 1 nM | < 100 nM | particularly excellent | A (A: a % remaining rate of 75% or more) | A (A: 60% or more) | – | < 1000 nM | –
CCOc1cc([C@@H](CS(C)(=O)=O)N2C(=O)c3cccc(NC(C)=O)c3C2=O)ccc1OC [apremilast, reference compound] | 11 to 100 nM | – | – | – | – | – | – | > 1000 nM
